Values of other authors in patent US5942536A, “N-[2-substituted-3-(2-aminoethyl)-1H-indol-5-YL]-Amides: new 5-HT1F agonists” (Eli Lilly and Company, priority 1998, dated 1999).

Experiments:
[1] = molecular target: T1, 5-HT1F receptor (Homo sapiens, UniProt P30939); conditions: literature (Weinshank); reference for Emax
T1 sequence (P30939 1-366): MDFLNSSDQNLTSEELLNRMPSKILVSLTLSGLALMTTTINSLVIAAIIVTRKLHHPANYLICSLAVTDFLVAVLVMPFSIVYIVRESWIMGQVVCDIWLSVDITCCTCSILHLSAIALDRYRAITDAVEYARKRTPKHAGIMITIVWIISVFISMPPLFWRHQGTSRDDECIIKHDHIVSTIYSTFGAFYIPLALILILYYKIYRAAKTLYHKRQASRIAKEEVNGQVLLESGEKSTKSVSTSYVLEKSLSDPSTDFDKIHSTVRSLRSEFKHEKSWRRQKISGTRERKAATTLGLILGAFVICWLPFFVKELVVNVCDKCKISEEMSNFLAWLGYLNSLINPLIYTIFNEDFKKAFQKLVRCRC

[2] = literature (Humphrey, et al.)
[3] = test system: cephalic vascular smooth muscle; conditions: literature (Humphrey, et al.)
[4] = test system: neurogenic inflammation; conditions: literature (Moskowitz)

Structure (SMILES)	effect on forskolin stimulated cAMP production [1]	effective in the treatment of migraine [2]	contraction of cephalic vascular smooth muscle [3]	block of neurogenic inflammation [4]
NCCc1c[nH]c2ccc(O)cc12 [serotonin]	maximal effect	–	–	–
CNS(=O)(=O)Cc1ccc2[nH]cc(CCN(C)C)c2c1 [sumatriptan]	–	effective in the treatment of migraine	contract cephalic vascular smooth muscle	blocked
